Data reported in patent US4705803A, “Method of improving resorption of injected antibacterially active substances or combinations” (Boehringer Ingelheim Vetmedica GmbH, priority 1982, dated 1987).

What was measured:
[1] = acute toxicity (LD50) in the mouse; settings: in vivo, ip
Source text: For example, the acute toxicity (LD50) in the mouse is […]

[2] = system: respiratory tract secretion; settings: cited from earlier work; for concentration of solids in the fluid of the respiratory tract / quantity of secretion / viscosity of the secretion: human and veterinary medicine; for specific weight: solids/fluid of the respiratory tract
physchem = settings: water
[3] = maximum solubility in water

| SMILES | LD50 [1] [mg/kg] | concentration of solids in the fluid of the respiratory tract [2] | quantity of secretion [2] | viscosity of the secretion [2] | specific weight [2] | solubility (physchem) [µg/mL] | solubility [3] [µg/mL] |
| --- | --- | --- | --- | --- | --- | --- | --- |
| Cl.Nc1c(Br)cc(Br)cc1CN[C@H]1CC[C@H](O)CC1 [Compound B, N-(2-amino,3,5-dibromo-benzyl)-trans-4-hydroxy-cyclohexylamine hydrochloride] | 268 | reduction | significant increase | decrease | reduction | 16600 |  |
| Cl.Oc1c(Br)cc(Br)cc1CN[C@H]1CC[C@H](O)CC1 [Compound C, N-(3,5-dibromo-2-hydroxy-benzyl)-trans-4-hydroxycyclohexylamine hydrochloride] | > 800 |  |  |  |  |  | 100 to 1000 |
| CN(Cc1cc(Br)cc(Br)c1N)C1CCCCC1.Cl [Compound A, N-(2-amino-3,5-dibromo-benzyl)-N-methyl-cyclohexylamine hydrochloride] | > 400 | reduction | significant increase | decrease | reduction | 200 to 5000 |  |
